Experimental data reported in patent publication US11986471B2, “Compounds and methods of use” (Tango Therapeutics, Inc., priority 2018, dated 2024).

Legend:
[1] = biological target: T1, PRMT5 (Homo sapiens, UniProt O14744); assay: PRMT5 IC50 assay with no cofactor; type: biochemical
T1 construct: purchased Viva (custom protein)
Outline: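 Values reflect IC50 (μM) on human PRMT5 under three cofactor states. Selectivity is derived as the quotient of SAM-state Ki over MTA-state Ki, with each Ki obtained from its IC50.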

[2] = system: HAP1 MTAP-deleted; assay: SDMA in-cell western assay, HAP1 MTAP-deleted cell line; type: cell-based; conditions: for IC50: Homo sapiens, HAP1 MTAP-deleted cell line; for MTAP Intact/Deleted Ratio: IC50 ratio HAP1 MTAP-intact / HAP1 MTAP-deleted
Outline: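 Readout is cellular SDMA signal by in-cell western, with IC50 values derived from it. The cells are MTAP-null HAP1, matched to an isogenic MTAP-intact HAP1 line.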

[3] = biological target: T1, PRMT5; assay: PRMT5 IC50 assay in the presence of MTA as cofactor; type: biochemical; conditions: for IC50: PRMT5, MTA as cofactor; for SAM/MTA Ratio: ratio between the Ki in the presence of SAM and the Ki in the presence of MTA
Outline: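 For the SAM-containing format, dividing IC50 by 1.5 yields Ki; for the MTA-containing format the divisor is 13.5. A third format without cofactor gives IC50 alone.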

[4] = biological target: T1, PRMT5; assay: PRMT5 IC50 assay in the presence of SAM as cofactor; type: biochemical
Outline: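 Enzyme: human PRMT5. Conditions: plus SAM, plus MTA, or cofactor-free. Output: IC50 (μM); Ki via IC50/1.5 (SAM) or IC50/13.5 (MTA).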

[5] = system: HAP1 MTAP-intact; assay: SDMA in-cell western assay, HAP1 MTAP-intact cell line; type: cell-based; conditions: Homo sapiens
Outline: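 IC50 values come from SDMA in-cell western staining of HAP1 cells. The MTAP-intact line carries endogenous MTAP, while its MTAP-deleted counterpart lacks MTAP entirely. A selectivity ratio of at least 3 fold marks a compound as MTAP-selective.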

T1 sequence (O14744 whole entry): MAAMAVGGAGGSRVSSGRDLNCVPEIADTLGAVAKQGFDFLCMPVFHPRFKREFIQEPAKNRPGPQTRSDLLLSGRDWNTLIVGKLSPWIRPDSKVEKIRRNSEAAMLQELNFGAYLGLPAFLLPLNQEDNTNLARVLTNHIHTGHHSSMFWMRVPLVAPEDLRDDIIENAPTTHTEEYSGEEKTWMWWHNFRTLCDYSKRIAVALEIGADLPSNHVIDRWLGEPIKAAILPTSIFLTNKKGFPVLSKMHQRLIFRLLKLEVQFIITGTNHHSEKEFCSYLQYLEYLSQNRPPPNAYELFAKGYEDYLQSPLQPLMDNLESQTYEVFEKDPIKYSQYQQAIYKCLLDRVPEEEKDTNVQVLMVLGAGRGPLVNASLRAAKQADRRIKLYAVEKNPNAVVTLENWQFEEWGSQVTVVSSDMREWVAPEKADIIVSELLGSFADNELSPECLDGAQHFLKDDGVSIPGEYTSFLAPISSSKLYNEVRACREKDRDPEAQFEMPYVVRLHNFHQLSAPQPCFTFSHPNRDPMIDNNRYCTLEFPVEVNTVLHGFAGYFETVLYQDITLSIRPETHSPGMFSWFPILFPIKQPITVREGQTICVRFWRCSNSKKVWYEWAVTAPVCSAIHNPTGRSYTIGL
T1 sequence (Q9BQA1 whole entry partner): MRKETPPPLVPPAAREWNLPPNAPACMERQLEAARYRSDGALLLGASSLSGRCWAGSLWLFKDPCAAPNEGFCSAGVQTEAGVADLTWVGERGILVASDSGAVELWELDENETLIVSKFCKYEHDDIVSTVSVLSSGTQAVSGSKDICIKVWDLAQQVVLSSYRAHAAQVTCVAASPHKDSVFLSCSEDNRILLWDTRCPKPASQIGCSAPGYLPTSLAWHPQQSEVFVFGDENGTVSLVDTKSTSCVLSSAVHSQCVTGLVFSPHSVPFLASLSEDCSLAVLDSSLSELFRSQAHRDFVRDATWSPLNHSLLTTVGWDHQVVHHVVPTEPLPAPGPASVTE

Row | Structure (SMILES) | IC50 [1] [nM] | IC50 [2] [nM] | IC50 [3] [nM] | IC50 [4] [nM] | IC50 [5] [nM] | MTAP Intact/Deleted Ratio [2] | SAM/MTA Ratio [3]
1 | O=C(NC[C@H](O)CN1CCc2c(ccc(OCc3cnco3)c2Cl)C1)c1ccc(OC2CCOCC2)cc1 [Compound 482, (S)—N-(3-(5-chloro-6-(oxazol-5-ylmethoxy)-3,4-dihydroisoquinolin-2(1H)-yl)-2-hydroxypropyl)-4-((tetrahydro-2H-pyran-4-yl)oxy)benzamide] | ≥ 5000 | ≥ 10000 | 500 to 5000 | 500 to 5000 | ≥ 10000 | C* (an IC50 ratio of less than 3 fold between the IC50 in the HAP1 MTAP-intact cell line and the HAP1 MTAP-deleted cell line) | A (a Ki ratio greater than or equal to 10 fold between the Ki in the presence of SAM and the Ki in the presence of MTA)
2 | Cc1c(OCc2cnco2)ccc2c1CCN(C[C@@H](O)CNC(=O)c1ccnc(NC3CC4CCCC43)c1)C2 (stereo partly drawn) [Compound 486, 2-(bicyclo[3.2.0]heptan-6-ylamino)-N—((S)-2-hydroxy-3-(5-methyl-6-(oxazol-5-ylmethoxy)-3,4-dihydroisoquinolin-2(1H)-yl)propyl)isonicotinamide] | ≥ 5000 | 1000 to 10000 | 50 to 500 | 50 to 500 | ≥ 10000 | C* (an IC50 ratio of less than 3 fold between the IC50 in the HAP1 MTAP-intact cell line and the HAP1 MTAP-deleted cell line) | A (a Ki ratio greater than or equal to 10 fold between the Ki in the presence of SAM and the Ki in the presence of MTA)
3 | Cc1ncoc1COc1ccc2c(c1C)CCN(C[C@@H](O)CNC(=O)c1cccc(NC3CCC3)c1)C2 [Compound 488, 3-(cyclobutylamino)-N-[(2S)-2-hydroxy-3-{5-methyl-6-[(4-methyl-1,3-oxazol-5-yl)methoxy]-1,2,3,4-tetrahydroisoquinolin-2-yl}propyl]benzamide] | ≥ 5000 | 1000 to 10000 | 50 to 500 | 500 to 5000 | ≥ 10000 | C* (an IC50 ratio of less than 3 fold between the IC50 in the HAP1 MTAP-intact cell line and the HAP1 MTAP-deleted cell line) | A (a Ki ratio greater than or equal to 10 fold between the Ki in the presence of SAM and the Ki in the presence of MTA)
4 | CCN(C)c1cc(C(=O)NC[C@H](O)CN2CCc3cc(OCc4ocnc4C)ccc3C2)cc(NC2CCC2)n1 [Compound 489, 2-(cyclobutylamino)-6-[ethyl(methyl)amino]-N-[(2S)-2-hydroxy-3-{6-[(4-methyl-1,3-oxazol-5-yl)methoxy]-1,2,3,4-tetrahydroisoquinolin-2-yl}propyl]pyridine-4-carboxamide] | ≥ 5000 | 1000 to 10000 | 50 to 500 | 500 to 5000 | ≥ 10000 | B* (an IC50 ratio greater than or equal to 3 fold but lower than 10 fold between the IC50 in the HAP1 MTAP-intact cell line and the HAP1 MTAP-deleted cell line) | A (a Ki ratio greater than or equal to 10 fold between the Ki in the presence of SAM and the Ki in the presence of MTA)
5 | CC(=O)N1CCC(Nc2cc(C(=O)NC[C@H](O)CN3CCc4nc(OCc5ocnc5C)ccc4C3)ncn2)CC1 [Compound 491, 6-[(1-acetyl-4-piperidyl)amino]-N-[(2S)-2-hydroxy-3-[2-[(4-methyloxazol-5-yl)methoxy]-7,8-dihydro-5H-1,6-naphthyridin-6-yl]propyl]pyrimidine-4-carboxamide] | ≥ 5000 | 1000 to 10000 | 50 to 500 | 50 to 500 | ≥ 10000 | C* (an IC50 ratio of less than 3 fold between the IC50 in the HAP1 MTAP-intact cell line and the HAP1 MTAP-deleted cell line) | A (a Ki ratio greater than or equal to 10 fold between the Ki in the presence of SAM and the Ki in the presence of MTA)

The next lines start with results.

Row | IC50 [1] [nM] | IC50 [2] [nM] | IC50 [3] [nM] | IC50 [4] [nM] | IC50 [5] [nM] | Structure (SMILES) | MTAP Intact/Deleted Ratio [2] | SAM/MTA Ratio [3]
6 | ≥ 5000 | ≥ 10000 | 50 to 500 | 50 to 500 | ≥ 10000 | CCCN(C)c1cc(C(=O)NC[C@H](O)CN2CCc3c(ccc(OCc4ocnc4C)c3C)C2)cc(NC2CCC2)n1 [Compound 480, 2-(cyclobutylamino)-N-[(2S)-2-hydroxy-3-{5-methyl-6-[(4-methyl-1,3-oxazol-5-yl)methoxy]-1,2,3,4-tetrahydroisoquinolin-2-yl}propyl]-6-[methyl(propyl)amino]pyridine-4-carboxamide] | C* (an IC50 ratio of less than 3 fold between the IC50 in the HAP1 MTAP-intact cell line and the HAP1 MTAP-deleted cell line) | A (a Ki ratio greater than or equal to 10 fold between the Ki in the presence of SAM and the Ki in the presence of MTA)
7 | 500 to 5000 | < 1000 | 50 to 500 | 50 to 500 | < 1000 | CC(C)C(=O)N1CCN(c2cc(C(=O)NC[C@H](O)CN3CCc4cc(OCc5cnco5)ccc4C3)cc(NC3CCC3)n2)CC1 [Compound 481, (S)-2-(cyclobutylamino)-N-(2-hydroxy-3-(6-(oxazol-5-ylmethoxy)-3,4-dihydroisoquinolin-2(1H)-yl)propyl)-6-(4-isobutyrylpiperazin-1-yl)isonicotinamide] | C* (an IC50 ratio of less than 3 fold between the IC50 in the HAP1 MTAP-intact cell line and the HAP1 MTAP-deleted cell line) | A (a Ki ratio greater than or equal to 10 fold between the Ki in the presence of SAM and the Ki in the presence of MTA)
8 | ≥ 5000 | 1000 to 10000 | 50 to 500 | 500 to 5000 | ≥ 10000 | O=C(NC[C@H](O)CN1CCc2c(ccc(OCc3cnco3)c2Cl)C1)c1ccnc(N[C@H]2CC[C@H](C(F)(F)F)CC2)c1 [Compound 483, N—((S)-3-(5-chloro-6-(oxazol-5-ylmethoxy)-3N-dihydroisoquinolin-2(1H)-yl)-2-hydroxypropyl)-2-(((1RNS)-4-(trifluoromethyl)cyclohexy)amino)isonicotinamide] | C* (an IC50 ratio of less than 3 fold between the IC50 in the HAP1 MTAP-intact cell line and the HAP1 MTAP-deleted cell line) | A (a Ki ratio greater than or equal to 10 fold between the Ki in the presence of SAM and the Ki in the presence of MTA)
9 | 500 to 5000 | 1000 to 10000 | 50 to 500 | 50 to 500 | ≥ 10000 | Cc1c(OCc2cnco2)ccc2c1CCN(C[C@@H](O)CNC(=O)c1ccnc(NC3CCN(C(=O)C4CC4)CC3)c1)C2 [Compound 484, (S)-2-((1-(cyclopropanecarbonyl)piperidin-4-yl)amino)-N-(2-hydroxy-3-(5-methyl-6-(oxazol-5-ylmethoxy)-3N-dihydroisoquinolin-2(1H)-yl)propyl)isonicotinamide] | B* (an IC50 ratio greater than or equal to 3 fold but lower than 10 fold between the IC50 in the HAP1 MTAP-intact cell line and the HAP1 MTAP-deleted cell line) | A (a Ki ratio greater than or equal to 10 fold between the Ki in the presence of SAM and the Ki in the presence of MTA)
10 | 500 to 5000 | < 1000 | 50 to 500 | 50 to 500 | < 1000 | Cc1ncoc1COc1ccc2c(c1)CCN(C[C@@H](O)CNC(=O)c1cc(NC3CCC3)nc(N3CCN(C)CC3)c1)C2 [Compound 485, 2-(cyclobutylamino)-N-[(2S)-2-hydroxy-3-{6-[(4-methyl-1,3-oxazol-5-yl)methoxy]-1,2,3,4-tetrahydroisoquinolin-2-yl}propyl]-6-(4-methylpiperazin-1-yl)pyridine-4-carboxamide] | C* (an IC50 ratio of less than 3 fold between the IC50 in the HAP1 MTAP-intact cell line and the HAP1 MTAP-deleted cell line) | A (a Ki ratio greater than or equal to 10 fold between the Ki in the presence of SAM and the Ki in the presence of MTA)
11 | ≥ 5000 | ≥ 10000 | 50 to 500 | 50 to 500 | ≥ 10000 | Cc1c(OCc2cnco2)ccc2c1CCN(C[C@@H](O)CNC(=O)c1ccnc(N[C@H]3C[C@@H](CO)C3)c1)C2 [Compound 487] | C* (an IC50 ratio of less than 3 fold between the IC50 in the HAP1 MTAP-intact cell line and the HAP1 MTAP-deleted cell line) | A (a Ki ratio greater than or equal to 10 fold between the Ki in the presence of SAM and the Ki in the presence of MTA)
12 | ≥ 5000 | ≥ 10000 | 500 to 5000 | 500 to 5000 | ≥ 10000 | Cc1ncoc1COc1ccc2c(c1Cl)CCN(C[C@@H](O)CNC(=O)c1cccc(NC3COC3)c1)C2 [Compound 490, N-[(2S)-3-[5-chloro-6-[(4-methyl-1,3-oxazol-5-yl)methoxy]-1,2,3,4-tetrahydroisoquinolin-2-yl}-2-hydroxypropyl]-3-[(oxetan-3-yl)amino]benzamide] | C* (an IC50 ratio of less than 3 fold between the IC50 in the HAP1 MTAP-intact cell line and the HAP1 MTAP-deleted cell line) | A (a Ki ratio greater than or equal to 10 fold between the Ki in the presence of SAM and the Ki in the presence of MTA)
